Results published in PubChem BioAssay AID1919014 (Molecular Pharmacology Branch, DTP, NCI, 2023).

Tested on: NCI-H1341 complex spheroids, percent test/control
Experiment: Anticancer human tumor NCI-H1341 cell line growth inhibition [AhR];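 also: spheroids exposed to agents for seven days before readout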
Conditions: for IC50: curve of first compound; for viability, T/C: stronger effect = lower value
Summary of the method: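 Agents were dosed in half-log steps down from roughly clinical Cmax, or from 10 microM where Cmax was unknown, alone and with AhR antagonists. Read-out: percent test/control growth of tumor spheroids containing HUVEC and MSC stromal cells.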

[1] = second compound 0.1 µM, first compound 0.0316 µM
[2] = second compound 0.1 µM, first compound 0.1 µM
[3] = second compound 0.1 µM, first compound 0.316 µM
[4] = second compound 0.1 µM, first compound 1 µM
[5] = second compound 0.1 µM, first compound 3.16 µM
[6] = second compound 0.1 µM, first compound 10 µM
[7] = second compound 0.316 µM, first compound 0.0316 µM
[8] = second compound 0.316 µM, first compound 0.1 µM
[9] = second compound 0.316 µM, first compound 0.316 µM
[10] = second compound 0.316 µM, first compound 1 µM
[11] = second compound 0.316 µM, first compound 3.16 µM
[12] = second compound 0.316 µM, first compound 10 µM
[13] = second compound 1 µM, first compound 0.0316 µM
[14] = second compound 1 µM, first compound 0.1 µM
[15] = second compound 1 µM, first compound 0.316 µM
[16] = second compound 1 µM, first compound 1 µM
[17] = second compound 1 µM, first compound 3.16 µM
[18] = second compound 1 µM, first compound 10 µM
[19] = second compound 3.16 µM, first compound 0.0316 µM
[20] = second compound 3.16 µM, first compound 0.1 µM
[21] = second compound 3.16 µM, first compound 0.316 µM
[22] = second compound 3.16 µM, first compound 1 µM
[23] = second compound 3.16 µM, first compound 3.16 µM
[24] = second compound 3.16 µM, first compound 10 µM
[25] = second compound 10 µM, first compound 0.0316 µM
[26] = second compound 10 µM, first compound 0.1 µM
[27] = second compound 10 µM, first compound 0.316 µM
[28] = second compound 10 µM, first compound 1 µM
[29] = second compound 10 µM, first compound 3.16 µM
[30] = second compound 10 µM, first compound 10 µM

| SMILES | IC50 (second compound 0.1 µM) [nM] | IC50 (second compound 0.316 µM) [nM] | IC50 (second compound 1 µM) [nM] | IC50 (second compound 3.16 µM) [nM] | IC50 (second compound 10 µM) [nM] | viability, T/C [1] [%] | viability, T/C [2] [%] | viability, T/C [3] [%] | viability, T/C [4] [%] | viability, T/C [5] [%] | viability, T/C [6] [%] | viability, T/C [7] [%] | viability, T/C [8] [%] | viability, T/C [9] [%] | viability, T/C [10] [%] | viability, T/C [11] [%] | viability, T/C [12] [%] | viability, T/C [13] [%] | viability, T/C [14] [%] | viability, T/C [15] [%] | further results |
| --- | --- | --- | --- | --- | --- | --- | --- | --- | --- | --- | --- | --- | --- | --- | --- | --- | --- | --- | --- | --- | --- |
| NS(=O)(=O)OCC1CC(n2ccc3c(NC4CCc5ccccc54)ncnc32)CC1O (stereo not given) + Cc1ccccc1N=Nc1ccc(NC(=O)c2ccnn2C)c(C)c1 | 113 | 63.3 | 111 | 110 | < 31.6 | 51.6 | 56.5 | 16.4 | 7.98 | 7.35 | 6.54 | 59 | 44.2 | 16.8 | 9.99 | 7.77 | 6.89 | 61.5 | 53.1 | 22.4 | viability, T/C [16]: 11.4%; viability, T/C [17]: 8.79%; viability, T/C [18]: 6.95%; viability, T/C [19]: 51.5%; viability, T/C [20]: 53.4%; viability, T/C [21]: 23.6%; viability, T/C [22]: 11%; viability, T/C [23]: 7.99%; viability, T/C [24]: 6.85%; viability, T/C [25]: 40.4%; viability, T/C [26]: 35.7%; viability, T/C [27]: 20.2%; viability, T/C [28]: 10.3%; viability, T/C [29]: 8.16%; viability, T/C [30]: 5.99% |
| Nc1ccccc1NC(=O)c1ccc(CNC(=O)OCc2cccnc2)cc1 + Cc1ccccc1N=Nc1ccc(NC(=O)c2ccnn2C)c(C)c1 | 582 | 604 | 596 | 647 | 380 | 91.8 | 84.5 | 65.2 | 37.4 | 9.11 | 0.66 | 89.9 | 88.7 | 70.3 | 33.6 | 9.54 | 1.08 | 120 | 98.6 | 76.3 | viability, T/C [16]: 30.1%; viability, T/C [17]: 7.04%; viability, T/C [18]: 0.78%; viability, T/C [19]: 85.9%; viability, T/C [20]: 86.7%; viability, T/C [21]: 62%; viability, T/C [22]: 43.1%; viability, T/C [23]: 12.5%; viability, T/C [24]: 0.88%; viability, T/C [25]: 49.7%; viability, T/C [26]: 53.3%; viability, T/C [27]: 58.7%; viability, T/C [28]: 37.8%; viability, T/C [29]: 18.8%; viability, T/C [30]: 3.01% |
| O=C(C=Cc1cccc(S(=O)(=O)Nc2ccccc2)c1)NO + Cc1ccccc1N=Nc1ccc(NC(=O)c2ccnn2C)c(C)c1 | 568 | 419 | 457 | 266 | 338 | 95.4 | 95.6 | 75.8 | 24.8 | 5.9 | 0.79 | 94.8 | 91.9 | 54.7 | 26.2 | 5.71 | 0.82 | 84.3 | 94.1 | 60.3 | viability, T/C [16]: 23%; viability, T/C [17]: 6.42%; viability, T/C [18]: 0.59%; viability, T/C [19]: 77.1%; viability, T/C [20]: 62.2%; viability, T/C [21]: 49.9%; viability, T/C [22]: 25.4%; viability, T/C [23]: 8.47%; viability, T/C [24]: 0.58%; viability, T/C [25]: 59.1%; viability, T/C [26]: 55%; viability, T/C [27]: 53.5%; viability, T/C [28]: 29%; viability, T/C [29]: 10.8%; viability, T/C [30]: 1.49% |
